Laboratory results as given in ChEMBL document CHEMBL1127872, “Discovery and development of aryl-fused imidazole-based angiotensin II antagonists” (Bioorg Med Chem Lett, 1994).

Experiments:
[1] = species on record: Oryctolagus cuniculus; assay: Potency of the Angiotensin II-induced contraction of rabbit aortic strips; type: functional, Aorta; conditions: for Kb: Oryctolagus cuniculus, Aorta, read-out: pA2 (converted)
[2] = biological target: Angiotensin II receptor (Rattus norvegicus) (UniProt P29089+P25095+P35351); assay: In vivo antagonism of Angiotensin II induced dose-pressor response in male rats.; type: functional, organism-based
[3] = biological target: T1, Type-1 angiotensin II receptor (Bos taurus, UniProt P25104); assay: Inhibition of [125I][Ile5]-AII binding to bovine adrenal cortex membrane Angiotensin II receptor type 1; type: tissue-based
T1 sequence (P25104 whole entry): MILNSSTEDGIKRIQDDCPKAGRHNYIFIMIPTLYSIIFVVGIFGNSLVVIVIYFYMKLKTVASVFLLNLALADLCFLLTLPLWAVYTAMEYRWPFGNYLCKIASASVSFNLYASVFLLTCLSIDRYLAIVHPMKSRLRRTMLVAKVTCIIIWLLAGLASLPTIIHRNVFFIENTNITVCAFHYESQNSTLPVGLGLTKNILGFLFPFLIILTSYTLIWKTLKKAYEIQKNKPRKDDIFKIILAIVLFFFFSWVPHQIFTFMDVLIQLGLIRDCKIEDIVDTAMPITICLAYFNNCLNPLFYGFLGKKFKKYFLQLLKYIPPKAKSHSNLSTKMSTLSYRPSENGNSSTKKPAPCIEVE

ED2 [2]	IC50 [3]	Structure (SMILES)	pA2 [1]	Kb [1]
0.16 mg/kg	–	CCCc1nc2c(C)ccnc2n1Cc1ccc(-c2ccccc2C(=O)O)cc1	8.5	3.16 nM
–	20000 nM	CCCCc1nc2ccccc2n1Cc1ccc(O)c(C)c1	–	–
–	81000 nM	CCCCc1nc2ccccc2n1CCc1cc(I)c(O)c(I)c1	–	–
–	–	CCCc1nc2ncccc2n1Cc1cc(Cl)c(O)c(Cl)c1	–	794 nM
0.079 mg/kg	–	Cc1ccnc2c1nc(C1CC1)n2Cc1cc(Cl)c(O)c(Cl)c1	–	2 nM
6.5 mg/kg	3200 nM	CCCCc1nc2ccccc2n1Cc1cc(Cl)c(O)c(Cl)c1	–	63.1 nM
–	–	Cc1ccnc2c1nc(CCCO)n2Cc1ccc(-c2ccccc2C(=O)O)cc1	–	501 nM
1.9 mg/kg	–	CCCCc1nc2cccnc2n1Cc1cc(Cl)c(O)c(Cl)c1	–	63.1 nM
–	2500 nM	CCCCc1nc2ccccc2n1Cc1cc(Br)c(O)c(Br)c1	–	–
0.15 mg/kg	–	CCCc1nc2c(C)ccnc2n1Cc1cc(Cl)c(O)c(Cl)c1	–	1.26 nM
–	4700 nM	CCCCc1nc2ccccc2n1Cc1cc(C)c(O)c(C)c1	–	–
0.29 mg/kg	–	CCc1nc2c(C)ccnc2n1Cc1ccc(-c2ccccc2C(=O)O)cc1	–	1.26 nM
0.45 mg/kg	–	CCCCc1nc2c(C)ccnc2n1Cc1ccc(-c2ccccc2C(=O)O)cc1	–	7.94 nM
0.48 mg/kg	–	Oc1c(Cl)cc(Cn2c(C3CC3)nc3cccnc32)cc1Cl	–	20 nM
0.075 mg/kg	–	Cc1ccnc2c1nc(C1CC1)n2Cc1ccc(-c2ccccc2C(=O)O)cc1	–	2 nM
0.66 mg/kg	–	CCCc1nc2c(Cl)ccnc2n1Cc1ccc(-c2ccccc2C(=O)O)cc1	–	7.94 nM
0.65 mg/kg	–	CCCc1nc2cccnc2n1Cc1cc(Cl)c(O)c(Cl)c1	–	31.6 nM
–	8500 nM	CCCCc1nc2ccccc2n1Cc1ccc(O)cc1	–	–
–	–	CCCCc1nc2ncccc2n1Cc1cc(Cl)c(O)c(Cl)c1	–	398 nM
–	1500 nM	CCCCc1nc2ccccc2n1Cc1cc(I)c(O)c(I)c1	–	–

ED2 [2]	IC50 [3]	Structure (SMILES)	pA2 [1]	Kb [1]
–	1600 nM	CCCCc1nc2ccccc2n1Cc1cc([N+](=O)[O-])c(O)c([N+](=O)[O-])c1	–	–
–	–	Oc1c(Cl)cc(Cn2c(C3CC3)nc3ncccc32)cc1Cl	–	631 nM
0.41 mg/kg	–	CCSc1nc2c(C)ccnc2n1Cc1ccc(-c2ccccc2C(=O)O)cc1	–	5.01 nM
1.3 mg/kg	–	Cc1ccnc2c1nc(C)n2Cc1ccc(-c2ccccc2C(=O)O)cc1	–	50.1 nM
–	2200 nM	CCCCc1nc2ccccc2n1Cc1cc(C)c(O)c([N+](=O)[O-])c1	–	–
0.25 mg/kg	–	Cc1ccnc2c1nc(C1CCC1)n2Cc1ccc(-c2ccccc2C(=O)O)cc1	–	5.01 nM
0.35 mg/kg	–	C/C=C/c1nc2c(C)ccnc2n1Cc1ccc(-c2ccccc2C(=O)O)cc1	–	5.01 nM
–	> 100000 nM	CCCCc1nc2ccccc2n1Cc1cc(C(C)(C)C)c(O)c(C(C)(C)C)c1	–	–
1.3 mg/kg	–	CCCCc1nc2c(C)cccc2n1Cc1cc(Cl)c(O)c(Cl)c1	–	20 nM
–	2200 nM	CCCCc1nc2ccccc2n1Cc1cc(C)c(O)c(I)c1	–	–
–	–	CCCc1nc2cccnc2n1Cc1ccc(-c2ccccc2C(=O)O)cc1	–	39.8 nM
0.55 mg/kg	–	CCCCc1nc2c(C)ccnc2n1Cc1cc(Cl)c(O)c(Cl)c1	–	10 nM
–	33000 nM	CCCCc1nc2ccccc2n1Cc1ccc(I)c(O)c1I	–	–
0.84 mg/kg	–	Cc1ccnc2c1nc(C(C)C)n2Cc1ccc(-c2ccccc2C(=O)O)cc1	–	31.6 nM
0.97 mg/kg	–	CSc1nc2c(C)ccnc2n1Cc1ccc(-c2ccccc2C(=O)O)cc1	–	10 nM
–	–	O=C(O)c1ccccc1-c1ccc(Cn2c(C3CC3)nc3c(C(=O)O)ccnc32)cc1	–	25.1 nM
0.28 mg/kg	–	CCCCc1nc(Cl)c(CO)n1Cc1ccc(-c2ccccc2-c2nnn[nH]2)cc1 [LOSARTAN]	–	2.51 nM
0.65 mg/kg	–	COCc1nc2c(C)ccnc2n1Cc1ccc(-c2ccccc2C(=O)O)cc1	–	79.4 nM
–	–	O=C(O)c1ccccc1-c1ccc(Cn2c(C3CC3)nc3c(CO)ccnc32)cc1	–	10 nM
